From article PMC5564600 (Oncotarget, 2017)

Key:
Test in all cases: biochemical
Type in all cases: binding
panel of 442 kinases [1] = target: T1, panel of 442 kinases (Homo sapiens, UniProt Q9BVS4); conditions: kinase RIOK2; for remaining activity at 1 µM: read-out: RIOK2 (% of control at 1 µM)
T1 construct: purchased Ambit Biosciences (scanMAXX KINOMEscan)

panel of 442 kinases [2] = target: T2, panel of 442 kinases (Homo sapiens, UniProt P00533, DEL752-759); conditions: EGFR(S752-I759del); for remaining activity at 1 µM: read-out: % of control at 1 µM
T2 construct: purchased Ambit Biosciences (scanMAXX KINOMEscan)

panel of 442 kinases [3] = target: T3, panel of 442 kinases (Homo sapiens, UniProt P00519, E255K); conditions: ABL1(E255K)-phosphorylated; for remaining activity at 1 µM: read-out: % of control at 1 µM
T3 construct: purchased Ambit Biosciences (scanMAXX KINOMEscan)

panel of 442 kinases [4] = target: T4, panel of 442 kinases (Homo sapiens, UniProt Q9BUB5); conditions: kinase MKNK1; for remaining activity at 1 µM: read-out: % of control at 1 µM
T4 construct: purchased Ambit Biosciences (scanMAXX KINOMEscan)

panel of 442 kinases [5] = target: T5, panel of 442 kinases (Homo sapiens, UniProt Q9UIK4); conditions: DAPK2; for remaining activity at 1 µM: read-out: % of control at 1 µM
T5 construct: purchased Ambit Biosciences (scanMAXX KINOMEscan)

panel of 442 kinases [6] = target: T6, panel of 442 kinases (Homo sapiens, UniProt Q8IYT8); conditions: kinase ULK2; for remaining activity at 1 µM: read-out: ULK2 (% of control at 1 µM)
T6 construct: purchased Ambit Biosciences (scanMAXX KINOMEscan)
T6 sequence (Q8IYT8 1-1036): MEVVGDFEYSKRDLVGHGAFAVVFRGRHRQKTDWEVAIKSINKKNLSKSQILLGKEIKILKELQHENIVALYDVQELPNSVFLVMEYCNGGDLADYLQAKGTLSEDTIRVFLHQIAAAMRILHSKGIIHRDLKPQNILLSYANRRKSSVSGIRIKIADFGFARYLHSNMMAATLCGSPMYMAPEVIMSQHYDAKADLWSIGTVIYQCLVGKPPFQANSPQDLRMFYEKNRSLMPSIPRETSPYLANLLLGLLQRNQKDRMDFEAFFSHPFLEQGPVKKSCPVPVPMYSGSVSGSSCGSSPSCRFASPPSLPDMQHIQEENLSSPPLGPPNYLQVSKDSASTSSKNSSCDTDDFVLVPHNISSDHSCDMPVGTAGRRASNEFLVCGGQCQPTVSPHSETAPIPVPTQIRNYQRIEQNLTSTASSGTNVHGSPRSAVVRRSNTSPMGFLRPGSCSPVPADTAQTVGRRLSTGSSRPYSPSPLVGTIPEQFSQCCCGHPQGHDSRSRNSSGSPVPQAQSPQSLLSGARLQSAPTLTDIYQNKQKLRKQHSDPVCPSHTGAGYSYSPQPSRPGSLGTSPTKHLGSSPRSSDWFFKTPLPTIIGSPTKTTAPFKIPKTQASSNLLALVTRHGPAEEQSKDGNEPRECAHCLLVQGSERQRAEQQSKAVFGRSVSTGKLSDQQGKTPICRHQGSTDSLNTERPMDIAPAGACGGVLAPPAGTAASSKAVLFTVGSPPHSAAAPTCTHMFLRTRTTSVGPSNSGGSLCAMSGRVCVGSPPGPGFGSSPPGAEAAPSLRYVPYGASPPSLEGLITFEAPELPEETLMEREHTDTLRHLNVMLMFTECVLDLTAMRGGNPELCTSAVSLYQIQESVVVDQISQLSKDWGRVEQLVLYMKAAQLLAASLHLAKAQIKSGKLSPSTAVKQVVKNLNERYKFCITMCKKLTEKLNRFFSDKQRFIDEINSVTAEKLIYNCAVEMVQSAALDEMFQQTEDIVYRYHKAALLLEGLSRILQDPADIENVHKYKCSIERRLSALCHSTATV

panel of 442 kinases [7] = target: T7, panel of 442 kinases (Homo sapiens, UniProt P54760); conditions: EPHB4; for remaining activity at 1 µM: read-out: % of control at 1 µM
T7 construct: purchased Ambit Biosciences (scanMAXX KINOMEscan)
T7 sequence (P54760 16-987): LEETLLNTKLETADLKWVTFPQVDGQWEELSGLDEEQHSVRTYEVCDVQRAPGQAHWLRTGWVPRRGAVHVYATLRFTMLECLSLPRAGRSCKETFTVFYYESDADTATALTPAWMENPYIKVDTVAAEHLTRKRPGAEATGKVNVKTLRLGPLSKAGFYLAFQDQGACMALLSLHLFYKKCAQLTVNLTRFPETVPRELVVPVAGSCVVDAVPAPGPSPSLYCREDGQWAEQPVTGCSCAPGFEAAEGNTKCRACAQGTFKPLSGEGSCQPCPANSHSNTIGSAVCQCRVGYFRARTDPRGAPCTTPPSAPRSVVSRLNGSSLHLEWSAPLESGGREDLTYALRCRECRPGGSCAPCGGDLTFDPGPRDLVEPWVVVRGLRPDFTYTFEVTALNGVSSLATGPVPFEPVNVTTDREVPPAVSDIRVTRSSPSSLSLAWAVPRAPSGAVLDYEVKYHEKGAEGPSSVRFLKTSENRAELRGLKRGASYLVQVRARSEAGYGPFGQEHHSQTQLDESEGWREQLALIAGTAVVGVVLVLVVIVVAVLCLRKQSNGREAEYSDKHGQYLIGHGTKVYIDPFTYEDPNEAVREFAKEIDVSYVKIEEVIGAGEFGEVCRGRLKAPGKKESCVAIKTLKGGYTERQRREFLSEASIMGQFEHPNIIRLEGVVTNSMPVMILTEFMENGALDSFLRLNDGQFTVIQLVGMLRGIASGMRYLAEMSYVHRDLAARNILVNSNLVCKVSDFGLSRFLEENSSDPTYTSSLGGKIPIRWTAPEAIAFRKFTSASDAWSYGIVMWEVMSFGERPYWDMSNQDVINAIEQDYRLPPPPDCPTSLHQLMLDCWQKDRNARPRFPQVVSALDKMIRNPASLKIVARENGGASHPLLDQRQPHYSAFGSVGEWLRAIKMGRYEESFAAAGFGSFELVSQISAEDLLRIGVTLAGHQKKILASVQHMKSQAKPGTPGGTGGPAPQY

panel of 442 kinases [8] = target: T8, panel of 442 kinases (Homo sapiens, UniProt Q9P1W9); conditions: kinase PIM2; for remaining activity at 1 µM: read-out: % of control at 1 µM
T8 construct: purchased Ambit Biosciences (scanMAXX KINOMEscan)

[9] = 10 µM, read-out: % of control at 10 µM

T1 sequence (Q9BVS4 whole entry): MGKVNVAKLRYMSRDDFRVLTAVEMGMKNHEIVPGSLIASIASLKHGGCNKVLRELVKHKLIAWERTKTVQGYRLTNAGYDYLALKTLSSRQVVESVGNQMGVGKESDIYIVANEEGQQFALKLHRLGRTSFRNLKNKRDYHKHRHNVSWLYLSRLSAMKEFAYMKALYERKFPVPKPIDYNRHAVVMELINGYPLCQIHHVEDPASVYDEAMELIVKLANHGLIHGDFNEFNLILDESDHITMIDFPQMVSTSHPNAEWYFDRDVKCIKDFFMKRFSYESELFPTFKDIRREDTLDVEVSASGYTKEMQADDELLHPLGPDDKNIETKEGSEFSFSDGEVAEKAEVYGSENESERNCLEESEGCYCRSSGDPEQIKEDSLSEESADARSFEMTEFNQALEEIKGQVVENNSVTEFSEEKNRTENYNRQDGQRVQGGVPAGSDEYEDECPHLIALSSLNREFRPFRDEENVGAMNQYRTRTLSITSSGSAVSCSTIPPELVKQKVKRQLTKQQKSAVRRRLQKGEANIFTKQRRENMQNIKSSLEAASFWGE
T2 sequence (P00533 with tags, fused parts or gaps DEL752-759): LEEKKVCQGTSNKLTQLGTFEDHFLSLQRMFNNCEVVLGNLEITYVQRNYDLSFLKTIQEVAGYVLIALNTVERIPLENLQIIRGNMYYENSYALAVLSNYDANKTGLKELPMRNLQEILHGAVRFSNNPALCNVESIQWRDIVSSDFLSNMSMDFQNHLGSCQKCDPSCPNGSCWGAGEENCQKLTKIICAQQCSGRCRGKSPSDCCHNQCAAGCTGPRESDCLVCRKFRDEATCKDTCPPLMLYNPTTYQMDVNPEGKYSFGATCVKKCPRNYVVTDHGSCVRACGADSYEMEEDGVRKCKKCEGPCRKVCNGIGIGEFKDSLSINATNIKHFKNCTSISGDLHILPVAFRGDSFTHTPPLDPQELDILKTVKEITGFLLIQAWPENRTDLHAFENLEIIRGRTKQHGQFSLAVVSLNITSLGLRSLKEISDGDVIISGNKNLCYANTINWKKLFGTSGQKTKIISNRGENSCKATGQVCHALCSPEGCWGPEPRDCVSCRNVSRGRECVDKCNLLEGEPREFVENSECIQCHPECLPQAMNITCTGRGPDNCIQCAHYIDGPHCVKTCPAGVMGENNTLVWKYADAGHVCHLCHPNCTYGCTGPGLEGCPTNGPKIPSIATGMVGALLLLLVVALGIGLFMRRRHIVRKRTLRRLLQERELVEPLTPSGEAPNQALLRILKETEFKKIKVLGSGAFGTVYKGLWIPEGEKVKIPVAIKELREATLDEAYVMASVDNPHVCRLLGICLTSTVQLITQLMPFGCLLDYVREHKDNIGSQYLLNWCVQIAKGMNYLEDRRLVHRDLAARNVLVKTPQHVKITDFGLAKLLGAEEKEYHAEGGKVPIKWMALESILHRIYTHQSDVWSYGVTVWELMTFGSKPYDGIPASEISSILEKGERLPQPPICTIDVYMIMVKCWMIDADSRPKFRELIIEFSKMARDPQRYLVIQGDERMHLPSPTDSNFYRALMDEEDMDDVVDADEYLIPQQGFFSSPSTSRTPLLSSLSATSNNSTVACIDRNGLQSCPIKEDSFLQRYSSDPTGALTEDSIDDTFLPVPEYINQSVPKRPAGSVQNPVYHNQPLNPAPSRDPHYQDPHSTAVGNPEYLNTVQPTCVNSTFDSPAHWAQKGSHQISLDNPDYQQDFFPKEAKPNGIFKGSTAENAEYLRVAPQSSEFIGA
T8 sequence (Q9P1W9 whole entry): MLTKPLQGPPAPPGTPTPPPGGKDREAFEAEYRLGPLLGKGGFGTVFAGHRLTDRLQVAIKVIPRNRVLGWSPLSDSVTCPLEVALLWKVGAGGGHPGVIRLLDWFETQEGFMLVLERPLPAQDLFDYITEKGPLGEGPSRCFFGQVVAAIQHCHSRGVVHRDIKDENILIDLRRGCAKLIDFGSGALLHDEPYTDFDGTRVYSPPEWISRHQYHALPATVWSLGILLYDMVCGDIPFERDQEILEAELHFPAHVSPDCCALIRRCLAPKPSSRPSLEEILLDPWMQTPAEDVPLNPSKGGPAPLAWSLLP
T5 sequence (Q9UIK4 whole entry): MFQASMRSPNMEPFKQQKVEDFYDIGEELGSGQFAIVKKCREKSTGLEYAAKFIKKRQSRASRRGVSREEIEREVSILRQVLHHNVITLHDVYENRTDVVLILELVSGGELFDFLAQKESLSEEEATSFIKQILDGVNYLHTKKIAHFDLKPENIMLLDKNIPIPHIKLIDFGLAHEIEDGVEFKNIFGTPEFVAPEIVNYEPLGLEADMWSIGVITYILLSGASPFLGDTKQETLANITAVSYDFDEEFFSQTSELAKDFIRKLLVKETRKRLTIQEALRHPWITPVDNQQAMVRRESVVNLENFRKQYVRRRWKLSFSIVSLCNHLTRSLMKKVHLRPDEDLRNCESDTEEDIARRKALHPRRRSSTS
T4 sequence (Q9BUB5 whole entry): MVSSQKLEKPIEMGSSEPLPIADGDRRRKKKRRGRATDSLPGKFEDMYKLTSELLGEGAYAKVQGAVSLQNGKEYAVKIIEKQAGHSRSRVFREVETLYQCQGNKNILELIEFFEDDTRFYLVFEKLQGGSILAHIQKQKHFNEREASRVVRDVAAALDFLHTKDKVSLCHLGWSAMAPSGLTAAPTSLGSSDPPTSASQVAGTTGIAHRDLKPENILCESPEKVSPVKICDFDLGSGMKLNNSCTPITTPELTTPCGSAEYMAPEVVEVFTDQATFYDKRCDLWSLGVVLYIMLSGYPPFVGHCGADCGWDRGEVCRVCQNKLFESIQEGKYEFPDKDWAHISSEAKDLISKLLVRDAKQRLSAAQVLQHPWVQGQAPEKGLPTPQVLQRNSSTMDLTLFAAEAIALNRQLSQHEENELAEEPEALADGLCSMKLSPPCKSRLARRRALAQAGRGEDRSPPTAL
T3 sequence (P00519 whole entry E255K): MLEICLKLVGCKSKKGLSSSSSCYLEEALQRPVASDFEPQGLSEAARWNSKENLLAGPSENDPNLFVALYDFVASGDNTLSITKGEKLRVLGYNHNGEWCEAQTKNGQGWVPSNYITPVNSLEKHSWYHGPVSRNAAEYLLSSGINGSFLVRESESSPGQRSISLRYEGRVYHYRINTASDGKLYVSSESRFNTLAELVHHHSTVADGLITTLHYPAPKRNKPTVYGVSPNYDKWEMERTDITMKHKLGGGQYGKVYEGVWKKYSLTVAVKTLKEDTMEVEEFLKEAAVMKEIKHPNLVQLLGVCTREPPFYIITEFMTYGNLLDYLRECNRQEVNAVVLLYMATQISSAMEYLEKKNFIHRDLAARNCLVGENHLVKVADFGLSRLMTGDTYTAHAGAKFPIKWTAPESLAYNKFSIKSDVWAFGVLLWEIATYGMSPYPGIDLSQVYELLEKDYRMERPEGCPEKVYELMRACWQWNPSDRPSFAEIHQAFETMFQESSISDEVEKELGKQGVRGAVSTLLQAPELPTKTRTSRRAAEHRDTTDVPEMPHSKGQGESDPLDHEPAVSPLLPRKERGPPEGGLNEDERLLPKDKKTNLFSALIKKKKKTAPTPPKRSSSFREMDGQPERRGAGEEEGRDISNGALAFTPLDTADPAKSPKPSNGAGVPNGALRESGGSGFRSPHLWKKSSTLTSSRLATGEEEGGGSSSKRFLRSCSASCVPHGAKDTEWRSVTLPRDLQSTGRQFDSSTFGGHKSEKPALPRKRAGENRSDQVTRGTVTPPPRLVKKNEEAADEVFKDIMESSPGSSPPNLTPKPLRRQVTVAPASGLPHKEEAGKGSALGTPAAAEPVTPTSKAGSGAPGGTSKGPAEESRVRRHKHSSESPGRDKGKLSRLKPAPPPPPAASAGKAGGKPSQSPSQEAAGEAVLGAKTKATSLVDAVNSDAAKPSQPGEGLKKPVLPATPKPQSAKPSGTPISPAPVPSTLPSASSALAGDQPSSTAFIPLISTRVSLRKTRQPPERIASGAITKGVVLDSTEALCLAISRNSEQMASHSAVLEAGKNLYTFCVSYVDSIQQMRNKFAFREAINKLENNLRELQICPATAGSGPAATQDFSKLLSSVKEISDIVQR

**Q.** Which remaining activity at 1 µM (panel of 442 kinases [1]) does the source give for `Nc1cc(C(F)(F)F)c(-c2cc(N3CCOCC3)nc(N3CCOCC3)n2)cn1` [Buparlisib] here?
**A.** 100%

**Q.** What about the remaining activity at 10 µM (panel of 442 kinases [1]; 10 µM, read-out: RIOK2 (% of control at 10 µM)) of the same compound?
**A.** 100%

**Q.** What about the remaining activity at 1 µM (panel of 442 kinases [2]) of the same compound?
**A.** 83%

**Q.** What about the remaining activity at 10 µM (panel of 442 kinases [2]; [9]) of the same compound?
**A.** 87%

**Q.** And the remaining activity at 1 µM (panel of 442 kinases [3])?
**A.** 74%

**Q.** What about the remaining activity at 10 µM (panel of 442 kinases [3]; [9]) of the same compound?
**A.** 96%

**Q.** What about the remaining activity at 1 µM (panel of 442 kinases [4]) of the same compound?
**A.** 100%

**Q.** And the remaining activity at 10 µM (panel of 442 kinases [4]; [9])?
**A.** 100%

**Q.** What about the remaining activity at 1 µM (panel of 442 kinases [5]) of the same compound?
**A.** 100%

**Q.** What about the remaining activity at 10 µM (panel of 442 kinases [5]; [9]) of the same compound?
**A.** 100%

**Q.** And the remaining activity at 1 µM (panel of 442 kinases [6])?
**A.** 86%

**Q.** And the remaining activity at 10 µM (panel of 442 kinases [6]; 10 µM, read-out: ULK2 (% of control at 10 µM))?
**A.** 100%

**Q.** What about the remaining activity at 1 µM (panel of 442 kinases [7]) of the same compound?
**A.** 100%

**Q.** And the remaining activity at 10 µM (panel of 442 kinases [7]; [9])?
**A.** 100%

**Q.** What about the remaining activity at 1 µM (panel of 442 kinases [8]) of the same compound?
**A.** 91%

**Q.** What about the remaining activity at 10 µM (panel of 442 kinases [8]; [9]) of the same compound?
**A.** 100%

**Q.** For `Cn1c(=O)n(-c2ccc(C(C)(C)C#N)cc2)c2c3cc(-c4cnc5ccccc5c4)ccc3ncc21` [Dactolisib, 2-methyl-2-[4-(3-methyl-2-oxo-8-quinolin-3-yl-2,3-dihydroimidazo[4,5-c]quinolin-1-yl)-phenyl] propionitrile], which remaining activity at 1 µM (panel of 442 kinases [1]) is on record?
**A.** 65%

**Q.** What about the remaining activity at 1 µM (panel of 442 kinases [2]) of the same compound?
**A.** 100%

**Q.** And the remaining activity at 1 µM (panel of 442 kinases [3])?
**A.** 79%

**Q.** And the remaining activity at 1 µM (panel of 442 kinases [4])?
**A.** 100%

**Q.** What about the remaining activity at 1 µM (panel of 442 kinases [5]) of the same compound?
**A.** 97%

**Q.** What about the remaining activity at 1 µM (panel of 442 kinases [6]) of the same compound?
**A.** 93%

**Q.** What about the remaining activity at 1 µM (panel of 442 kinases [7]) of the same compound?
**A.** 97%

**Q.** And the remaining activity at 1 µM (panel of 442 kinases [8])?
**A.** 100%

**Q.** Which remaining activity at 1 µM (panel of 442 kinases [1]) does the source give for `COc1ncc(-c2ccc3nccc(-c4ccnnc4)c3c2)cc1NS(=O)(=O)c1ccc(F)cc1F` [Omipalisib] here?
**A.** 100%

**Q.** And the remaining activity at 1 µM (panel of 442 kinases [2])?
**A.** 100%

**Q.** What about the remaining activity at 1 µM (panel of 442 kinases [3]) of the same compound?
**A.** 95%

**Q.** What about the remaining activity at 1 µM (panel of 442 kinases [4]) of the same compound?
**A.** 43%

**Q.** And the remaining activity at 1 µM (panel of 442 kinases [5])?
**A.** 100%

**Q.** What about the remaining activity at 1 µM (panel of 442 kinases [6]) of the same compound?
**A.** 100%

**Q.** What about the remaining activity at 1 µM (panel of 442 kinases [7]) of the same compound?
**A.** 100%

**Q.** And the remaining activity at 1 µM (panel of 442 kinases [8])?
**A.** 98%

**Q.** Which remaining activity at 1 µM (panel of 442 kinases [1]) does the source give for `FC(F)c1nc2ccccc2n1-c1nc(N2CCOCC2)nc(N2CCOCC2)n1` [ZSTK474, 2-(difluoromethyl)-1-[4,6-di(4-morpholinyl)-1,3,5-triazin-2-yl]-1H-benzimidazole] here?
**A.** 39%

**Q.** What about the remaining activity at 1 µM (panel of 442 kinases [2]) of the same compound?
**A.** 100%

**Q.** And the remaining activity at 1 µM (panel of 442 kinases [3])?
**A.** 100%

**Q.** What about the remaining activity at 1 µM (panel of 442 kinases [4]) of the same compound?
**A.** 92%

**Q.** What about the remaining activity at 1 µM (panel of 442 kinases [5]) of the same compound?
**A.** 100%

**Q.** And the remaining activity at 1 µM (panel of 442 kinases [6])?
**A.** 100%

**Q.** What about the remaining activity at 1 µM (panel of 442 kinases [7]) of the same compound?
**A.** 92%

**Q.** What about the remaining activity at 1 µM (panel of 442 kinases [8]) of the same compound?
**A.** 100%
